Data from patent US12600721B2, “TYK2 inhibitors and uses thereof” (Sudo Biosciences Limited, priority 2021, dated 2026).
pIC50: −log10 of the molar value.

Key:
TYK2-JH1 = target: T1, TYK2-JH1 (Homo sapiens, UniProt P29597); experiment: HTRF-based selectivity assay, TYK2 catalytic domain; type: biochemical; conditions: kinase domain (JH1), 20 μM ATP
T1 construct: using a recombinant purified His or GST-tagged catalytic domain for each enzyme; made in house
T1 sequence (P29597 897-1176 limits assumed): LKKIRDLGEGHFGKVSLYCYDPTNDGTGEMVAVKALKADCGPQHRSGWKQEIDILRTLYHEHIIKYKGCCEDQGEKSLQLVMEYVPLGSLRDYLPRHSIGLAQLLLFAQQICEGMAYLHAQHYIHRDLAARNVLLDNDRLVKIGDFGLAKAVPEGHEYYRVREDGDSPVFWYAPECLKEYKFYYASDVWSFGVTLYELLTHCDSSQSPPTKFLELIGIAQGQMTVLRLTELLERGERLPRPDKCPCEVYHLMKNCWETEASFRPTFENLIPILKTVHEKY
Experimental: (§1) The ability of compounds to inhibit the activity of JAK1, JAK2, JAK3 and TYK2 is measured using a recombinant purified His or GST-tagged catalytic domain for each enzyme (JAK1, JAK2 and TYK2 are generated in-house; JAK3 was purchased from Carna biosciences, Cat #08-046) in an HTRF format biochemical assay. The reactions employs a commercial peptide substrate from Cisbio (Cat #62TK0PEC). The basic assay protocol is as follows: first, 2.5 μL of diluted compounds (4×) in DMSO are dispensed into a 384-well Optiplate. Next, 2.5 μL of enzyme (final concentrations for enzymes are: TYK2-700 ng/mL, JAK1-80.6 ng/ml, JAK2-2.1 ng/ml and JAK3-171.8 ng/mL) is added and incubated at RT for 5-20 min. Finally, 5 μl of mixture of 2×ATP [Final concentration 20 μM for TYK2, 21.43 μM for JAK1, 14.7 μM for JAK2 and 2.12 μM for JAK3]+2× Substrate [Final concentration 217 nM for TYK2, 454.7 nM for JAK1, 200 nM for JAK2 and 257.4 nM for JAK3] is added to 384 well Optiplate. Composition of Kinase assay buffer used in the assay is as follows: HEPES 50 mM, EGTA 1 mM, MgCl2 10 mM, DTT 2 mM, Tween-20 0.01% and water. Then the plates are shaken and then incubated at 26.5° C. for 60 min.

JAK1-JH1 = target: T2, JAK1-JH1 (Homo sapiens, UniProt P23458); experiment: HTRF-based selectivity assay, JAK1 catalytic domain; type: biochemical; conditions: kinase domain (JH1), 21.43 μM ATP
T2 construct: using a recombinant purified His or GST-tagged catalytic domain for each enzyme; made in house
Experimental: as §1

TYK2 Pseudokinase (JH2) [1] = experiment: HEK-Blue IL-23 reporter assay (SEAP) for profiling TYK2 pseudokinase (JH2) inhibition; type: cell-based; conditions: HEK-Blue IL-23 cells, 10 ng/mL human recombinant IL-23, SEAP reporter; read-out: IL23 IC50 (TYK2 inhibitory activity)
Experimental: (§2) HEK-Blue™ IL-23 and IFNα/β cells with a stably-integrated cytokine receptor and STAT3 or STAT1 express STAT-inducible secreted embryonic alkaline phosphatase (SEAP) reporter gene upon cytokine stimulation. These cells are plated in DMEM (Gibco) containing 10% heat-inactivated FBS (Gibco) and 100 U/mL PenStrep (Gibco) at 37° C. under 5% CO2 conditions for 20-22 hours. The cells are then pretreated with serially diluted test compounds for 60 min prior to stimulation with either 10 ng/mL human recombinant IL-23 (Miltenyl Biotech) or 1 ng/mL human recombinant IFNα (InvivoGen) for 22-24 hours for IL-23 or 16-18 h for IFNα. SEAP induction is measured using the QUANTI Blue™ Solution (InvivoGen) according to the manufacturer's instructions.

JAK2-JH1 = target: T3, JAK2-JH1 (Homo sapiens, UniProt O60674); experiment: HTRF-based selectivity assay, JAK2 catalytic domain; type: biochemical; conditions: kinase domain (JH1), 14.7 μM ATP
T3 construct: using a recombinant purified His or GST-tagged catalytic domain for each enzyme; made in house
Experimental: as §1

[2] = test system: HEK-Blue IFNγ reporter cells; experiment: HEK-Blue IFNγ reporter assay (SEAP) for determining selectivity; type: cell-based; conditions: 50 ng/ml human recombinant IFNγ, read-out: IFN-γ IC50 (SEAP selectivity)
Experimental: (§3) HEK-Blue™ IL-2 and IFNγ reporter cells with a stably-integrated cytokine receptor and STAT5 or STAT1 express STAT-inducible secreted embryonic alkaline phosphatase (SEAP) reporter gene upon cytokine stimulation. These cells were plated in DMEM (Gibco) containing 10% heat-inactivated FBS (Gibco) and 100 U/mL PenStrep (Gibco) at 37° C. under 5% CO2 conditions for 20-22 hours. The cells were then pretreated with serially diluted test compounds for 60 min prior to stimulation with either 4 ng/ml human recombinant IL-2 (Miltenyl Biotech) or 50 ng/ml human recombinant IFNγ (InvivoGen) for 24 hours. SEAP induction was measured using the QUANTI-Blue™ Solution (InvivoGen) according to the manufacturer's instructions.

[3] = test system: HEK-Blue IL-2 reporter cells; experiment: HEK-Blue IL-2 reporter assay (SEAP) for determining selectivity; type: cell-based; conditions: HEK-Blue IL-2 cells, 4 ng/ml human recombinant IL-2, SEAP reporter
Experimental: as §3

JAK3-JH1 = target: T4, JAK3-JH1 (Homo sapiens, UniProt P52333); experiment: HTRF-based selectivity assay, JAK3 catalytic domain; type: biochemical; conditions: kinase domain (JH1), 2.12 μM ATP
T4 construct: using a recombinant purified His or GST-tagged catalytic domain for each enzyme; purchased Carna biosciences 08-046
Experimental: as §1

TYK2 Pseudokinase (JH2) [4] = experiment: HEK-Blue IFNα/β reporter assay (SEAP) for profiling TYK2 pseudokinase (JH2) inhibition; type: cell-based; conditions: HEK-Blue IFNα/β cells, 1 ng/mL human recombinant IFNα, read-out: IFNα IC50 (TYK2 inhibitory activity)
Experimental: as §2

T4 sequence (P52333 822-1111 limits assumed): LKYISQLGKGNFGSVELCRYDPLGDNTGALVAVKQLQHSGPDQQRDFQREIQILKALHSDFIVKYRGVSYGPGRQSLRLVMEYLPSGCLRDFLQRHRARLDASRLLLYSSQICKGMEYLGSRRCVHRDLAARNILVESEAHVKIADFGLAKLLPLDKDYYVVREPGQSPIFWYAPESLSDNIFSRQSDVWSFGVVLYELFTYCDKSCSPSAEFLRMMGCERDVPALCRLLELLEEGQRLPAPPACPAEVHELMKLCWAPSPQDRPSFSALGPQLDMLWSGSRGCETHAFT
T3 sequence (O60674 849-1124 limits assumed): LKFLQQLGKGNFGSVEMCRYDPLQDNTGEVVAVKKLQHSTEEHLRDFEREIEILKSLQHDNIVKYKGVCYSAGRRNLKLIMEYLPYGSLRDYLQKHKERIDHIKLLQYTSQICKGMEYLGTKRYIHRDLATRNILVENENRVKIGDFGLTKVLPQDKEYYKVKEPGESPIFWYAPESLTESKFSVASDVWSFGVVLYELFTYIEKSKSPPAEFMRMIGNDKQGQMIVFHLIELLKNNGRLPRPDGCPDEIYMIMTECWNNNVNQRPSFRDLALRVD
T2 sequence (P23458 875-1153 limits assumed): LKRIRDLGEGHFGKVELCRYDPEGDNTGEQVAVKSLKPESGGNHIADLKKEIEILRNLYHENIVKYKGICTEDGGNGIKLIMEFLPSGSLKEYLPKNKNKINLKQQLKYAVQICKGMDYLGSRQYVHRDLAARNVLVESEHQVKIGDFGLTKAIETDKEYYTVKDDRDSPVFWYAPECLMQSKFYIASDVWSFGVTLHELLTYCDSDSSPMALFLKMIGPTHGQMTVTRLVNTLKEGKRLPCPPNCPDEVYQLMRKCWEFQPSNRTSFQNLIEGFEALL

SMILES	pIC50 (TYK2-JH1)	pIC50 (JAK1-JH1)	pIC50 (TYK2 Pseudokinase (JH2) [1])	pIC50 (JAK2-JH1)	pIC50 [2]	pIC50 [3]	pIC50 (JAK3-JH1)	pIC50 (TYK2 Pseudokinase (JH2) [4])
[2H]C([2H])([2H])NC(=O)c1cnc(NC(=O)C2CC2)cc1Nc1cccc2c1N(C)Cc1cnn(C)c(=O)c1-2 [Compound 28, 6-(cyclopropanecarboxamido)-4-((2,6-dimethyl-1-oxo-1,2,5,6-tetrahydropyridazino[4,5-c]quinolin-7-yl)amino)-N-(methyl-d3)nicotinamide]	< 6.00	< 6.00	> 7.52	< 6.00	6.52 to 7.52	< 6.00	< 6.00	> 7.52
[2H]C([2H])([2H])NC(=O)c1cnc(NC(=O)C2CC2)cc1Nc1cccc2c1N(C)Cc1nccnc1-2 [Compound 8, 6-(cyclopropanecarboxamido)-N-(methyl-d3)-4-((6-methyl-5,6-dihydropyrazino[2,3-c]quinolin-7-yl)amino)nicotinamide]	< 6.00	< 6.00	> 7.52	< 6.00	6.52 to 7.52	< 6.00	< 6.00	> 7.52
[2H]C([2H])([2H])NC(=O)c1cnc(NC(=O)C2CC2)cc1Nc1cccc2c1N(C)Cc1cncnc1-2 [Compound 4, 6-(cyclopropanecarboxamido)-N-(methyl-d3)-4-((6-methyl-5,6-dihydropyrimido[5,4-c]quinolin-7-yl)amino)nicotinamide]	< 6.00	6.00 to 6.52	> 7.52	< 6.00	< 6.00	< 6.00	< 6.00	> 7.52
[2H]C([2H])([2H])NC(=O)c1nnc(NC(=O)C2CC2)cc1Nc1cccc2c1N(C([2H])([2H])[2H])Cc1nccnc1-2 [Compound 18, 6-(cyclopropanecarboxamido)-N-(methyl-d3)-4-((6-(methyl-d3)-5,6-dihydropyrazino[2,3-c]quinolin-7-yl)amino)pyridazine-3-carboxamide]	< 6.00	< 6.00	> 7.52	< 6.00	6.52 to 7.52	6.00 to 6.52	< 6.00	> 7.52
[2H]C([2H])([2H])NC(=O)c1nnc(NC(=O)C2CC2)cc1Nc1cccc2c1N(C)Cc1cnn(C)c(=O)c1-2 [Compound 27, 6-(cyclopropanecarboxamido)-4-((2,6-dimethyl-1-oxo-1,2,5,6-tetrahydropyridazino[4,5-c]quinolin-7-yl)amino)-N-(methyl-d3)pyridazine-3-carboxamide]	< 6.00	< 6.00	> 7.52	< 6.00	6.52 to 7.52	6.00 to 6.52	< 6.00	> 7.52
[2H]C([2H])([2H])NC(=O)c1cnc(NC(=O)C2CC2)cc1Nc1cccc2c1N(C)Cc1cc(F)cnc1-2 [Compound 5, 6-(cyclopropanecarboxamido)-4-((3-fluoro-6-methyl-5,6-dihydrobenzo[h][1,6]naphthyridin-7-yl)amino)-N-(methyl-d3)nicotinamide]	< 6.00	< 6.00	> 7.52	< 6.00	< 6.00	< 6.00	< 6.00	> 7.52
[2H]C([2H])([2H])NC(=O)c1nnc(NC(=O)C2CC2)cc1Nc1cccc2c1N(C)Cc1nccnc1-2 [Compound 16, 6-(cyclopropanecarboxamido)-N-(methyl-d3)-4-((6-methyl-5,6-dihydropyrazino[2,3-c]quinolin-7-yl)amino)pyridazine-3-carboxamide]	< 6.00	< 6.00	> 7.52	< 6.00	6.52 to 7.52	< 6.00	< 6.00	> 7.52
[2H]C([2H])([2H])NC(=O)c1nnc(NC(=O)C2CC2)cc1Nc1cccc2c1N(C)Cc1cncnc1-2 [Compound 6, 6-(cyclopropanecarboxamido)-N-(methyl-d3)-4-((6-methyl-5,6-dihydropyrimido[5,4-c]quinolin-7-yl)amino)pyridazine-3-carboxamide]	< 6.00	6.00 to 6.52	> 7.52	< 6.00	6.52 to 7.52	< 6.00	< 6.00	> 7.52
[2H]C([2H])([2H])NC(=O)c1nnc(Nc2ccc(F)cn2)cc1Nc1cccc2c1N(C)Cc1cccnc1-2 [Compound 2, 6-((5-fluoropyridin-2-yl)amino)-N-(methyl-d3)-4-((6-methyl-5,6-dihydrobenzo[h][1,6]naphthyridin-7-yl)amino)pyridazine-3-carboxamide]	< 6.00	< 6.00	> 7.52	< 6.00	< 6.00	< 6.00	< 6.00	> 7.52
